Experimental data: patent US20250135038A1, “COMPOSITIONS AND METHODS FOR IMPROVED TREATMENT OF POMPE DISEASE” (Astellas Gene Therapies, Inc., priority 2022, published 2025)

Test system: liver transaminases (ALT, AST) and bilirubin
Test: Longitudinal monitoring of liver transaminases (ALT, AST) and bilirubin, relative to prednisolone prophylaxis
Assay type: in vivo, human
Text: Abbreviations: L, liter; U/L, units per liter; […], upper limit of normal.
Liver transaminases and bilirubin were also monitored over time for patients 2002, 2003, and 2009 (FIG. 11-13).

Compound	Prophylaxis of liver syndromes associated with GAA gene therapy (combination of the viral vector and an anti-transaminitis agent (e.g., prednisolone), conclusion of Example 1)	Response of the rise in transaminases to re-initiation of corticosteroid treatment (participant 2001, after AAV vector 3×10^13 vg/kg)	Response of transaminitis to steroid schedule (participant 2003, after AAV vector 6×10^13 vg/kg)	Response of transaminitis to steroid schedule (participant 2009, after AAV vector 6×10^13 vg/kg)	Liver function parameters (Patient 2002 (3×10^13 vg/kg), reduced dose of prophylactic prednisone, throughout steroid tapering and >1 year follow up)
C[C@]12C=CC(=O)C=C1CC[C@@H]1[C@@H]2[C@@H](O)C[C@@]2(C)[C@H]1CC[C@]2(O)C(=O)CO [prednisolone]	can serve as a prophylactic treatment for liver syndromes	responded well	responsive to a slowing in the steroid tapering schedule and a small increment in steroid dose	responsive to a slowing in the steroid tapering schedule	–
C[C@]12C=CC(=O)C=C1CC[C@@H]1[C@@H]2C(=O)C[C@@]2(C)[C@H]1CC[C@]2(O)C(=O)CO [prednisone]	–	–	–	–	remained within the normal range
